Patent US9193722B2, “Tri-cyclic pyrazolopyridine kinase inhibitors” (Vertex Pharmaceuticals Incorporated, priority 2008, dated 2015)

How the values were obtained:
Assay type in all cases: biochemical
PKC alpha kinase = PKC alpha kinase (Homo sapiens, UniProt P17252); experiment: PKC alpha kinase inhibition, coupled-enzyme (NADH absorbance) assay, Ki; details: 130 μM ATP, 4.5 nM PKC alpha kinase, 30° C.
Description: (§1) An assay buffer solution was prepared which consisted of 100 mM HEPES (pH 7.5), 10 mM MgCl2, 25 mM NaCl, 0.1 mM EDTA, 100 μM CaCl2 and 0.01% Brij. […] To 16 μL of this enzyme buffer, in a 384 well plate, was added 1 μL of VRT stock solution in DMSO. The mixture was allowed to equilibrate for 10 mins at 30° C. The enzyme reaction was initiated by the addition of 16 μL stock ATP solution prepared in assay buffer to a final assay concentration of 130 μM. Initial rate data was determined from the rate of change of absorbance at 340 nm (corresponding to stoichiometric consumption of NADH) using a Molecular Devices Spectramax plate reader (Sunnyvale, Calif.) over 15 mins at 30° C. […] Ki values were calculated from initial rate data by non-linear regression using the Prism software package (Prism 4.0a, Graphpad Software, San Diego, Calif.).

PKC theta kinase = PKC theta kinase (Homo sapiens, UniProt Q04759); experiment: PKC theta kinase inhibition, coupled-enzyme (NADH absorbance) assay, Ki; details: 240 μM ATP, 18 nM PKC theta kinase, 30° C.
Description: An assay buffer solution was prepared which consisted of 100 mM HEPES (pH 7.5), 10 mM MgCl2, 25 mM NaCl, 0.1 mM EDTA and 0.01% Brij. […] To 60 μL of this enzyme buffer, in a 384 well plate, was added 2 μL of VRT stock solution in DMSO. The mixture was allowed to equilibrate for 10 mins at 30° C. […] Ki values were calculated from initial rate data by non-linear regression using the Prism software package (Prism 4.0a, Graphpad Software, San Diego, Calif.).

PKC delta kinase = PKC delta kinase (Homo sapiens, UniProt Q05655); experiment: PKC delta kinase inhibition, coupled-enzyme (NADH absorbance) assay, Ki; details: 150 μM ATP, 46 nM PKC delta kinase, 30° C.; read-out: Ki PKC delta
Description: as §1, with “EDTA” for “EDTA, 100 μM CaCl2”, “150” for “130”

Sequence of PKC delta kinase (Q05655 whole entry): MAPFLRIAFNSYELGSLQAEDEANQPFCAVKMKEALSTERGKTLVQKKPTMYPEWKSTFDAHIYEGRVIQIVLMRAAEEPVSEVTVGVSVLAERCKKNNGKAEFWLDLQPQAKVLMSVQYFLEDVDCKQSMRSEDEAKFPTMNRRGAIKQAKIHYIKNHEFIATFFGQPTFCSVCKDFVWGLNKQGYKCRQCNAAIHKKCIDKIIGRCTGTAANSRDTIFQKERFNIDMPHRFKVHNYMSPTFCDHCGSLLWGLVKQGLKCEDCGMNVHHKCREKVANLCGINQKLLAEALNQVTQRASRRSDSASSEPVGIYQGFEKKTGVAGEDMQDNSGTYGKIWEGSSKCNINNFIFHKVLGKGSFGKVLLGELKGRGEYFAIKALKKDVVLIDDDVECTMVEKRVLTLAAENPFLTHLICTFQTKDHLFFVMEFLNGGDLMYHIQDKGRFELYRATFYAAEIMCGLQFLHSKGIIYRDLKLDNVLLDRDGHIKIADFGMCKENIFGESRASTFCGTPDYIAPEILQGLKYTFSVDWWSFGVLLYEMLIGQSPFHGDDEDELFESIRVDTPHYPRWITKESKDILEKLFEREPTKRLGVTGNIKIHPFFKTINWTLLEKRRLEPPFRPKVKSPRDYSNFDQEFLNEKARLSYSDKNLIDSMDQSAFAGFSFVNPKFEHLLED
Sequence of PKC theta kinase (Q04759 whole entry): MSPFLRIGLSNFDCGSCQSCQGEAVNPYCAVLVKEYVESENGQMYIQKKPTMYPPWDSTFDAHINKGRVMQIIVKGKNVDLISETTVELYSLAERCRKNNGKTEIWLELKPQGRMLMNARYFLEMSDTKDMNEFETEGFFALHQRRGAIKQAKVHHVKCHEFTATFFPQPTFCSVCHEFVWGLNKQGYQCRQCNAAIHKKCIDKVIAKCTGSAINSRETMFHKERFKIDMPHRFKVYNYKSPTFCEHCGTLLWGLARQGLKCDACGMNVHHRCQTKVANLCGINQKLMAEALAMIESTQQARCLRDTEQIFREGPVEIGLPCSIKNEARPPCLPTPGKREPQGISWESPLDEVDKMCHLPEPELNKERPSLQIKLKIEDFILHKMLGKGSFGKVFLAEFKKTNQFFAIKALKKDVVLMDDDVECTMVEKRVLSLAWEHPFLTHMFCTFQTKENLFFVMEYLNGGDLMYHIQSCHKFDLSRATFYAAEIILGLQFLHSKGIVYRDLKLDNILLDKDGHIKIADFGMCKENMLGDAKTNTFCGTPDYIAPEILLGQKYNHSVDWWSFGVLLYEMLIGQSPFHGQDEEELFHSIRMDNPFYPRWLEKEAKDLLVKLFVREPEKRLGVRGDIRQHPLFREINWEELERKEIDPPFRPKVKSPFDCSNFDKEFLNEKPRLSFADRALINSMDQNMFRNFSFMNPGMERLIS

Structure (SMILES) | Ki (PKC alpha kinase) | Ki (PKC theta kinase) | Ki (PKC delta kinase)
NCC1CCCN(c2cc(C(F)(F)F)cc(-c3n[nH]c4ncccc34)n2)C1 (stereo not drawn) [Compound 432] | > 1.25 µM | < 0.05 µM | > 1.25 µM
Cc1ccccc1C1CN(c2cccc(-c3n[nH]c4ncccc34)n2)CCN1 (stereo not drawn) [Compound 32] | < 0.5 µM | < 0.05 µM | < 0.5 µM
CC(C)(O)C1CN(c2cccc(-c3n[nH]c4ncccc34)n2)CCN1 (stereo not drawn) [Compound 105] | > 1.25 µM | < 0.05 µM | < 0.5 µM
NCc1cccc(-c2ccc(C(F)(F)F)c(-c3n[nH]c4ncccc34)n2)c1 [Compound 306] | > 1.25 µM | > 0.7 µM | > 1.25 µM
CC(C)C[C@@H]1CC(O)(c2cccc(-c3n[nH]c4ncccc34)n2)CCN1 (stereo partly drawn) [Compound 73] | > 1.25 µM | > 0.7 µM | > 2 µM
CC(C)C[C@H]1CN(c2nc(-c3n[nH]c4ncccc34)ccc2F)CCN1 [Compound 131] | < 2.8 µM | < 0.05 µM | < 2.8 µM
Cc1cc(-c2n[nH]c3ncccc23)nc(N2CCN[C@@H](CC(C)C)C2)c1 [Compound 56] | > 1.25 µM | < 0.5 µM | < 2.8 µM
CC(C)(F)C1CN(c2cccc(-c3n[nH]c4ncccc34)n2)CCN1 (stereo not drawn) [Compound 148] | > 1.25 µM | < 0.05 µM | < 0.5 µM
c1cc(-c2n[nH]c3ncccc23)nc(N2CCN[C@@H](CC3CC3)C2)c1 [Compound 162] | < 2.8 µM | < 0.05 µM | < 0.5 µM
FC(F)(F)C1CN(c2cccc(-c3n[nH]c4ncccc34)n2)CCN1 (stereo not drawn) [Compound 25] | > 1.25 µM | < 0.5 µM | < 2.8 µM
CC(C)C[C@H]1CN(c2cccc(-c3n[nH]c4ncc(Cl)cc34)n2)CCN1 [Compound 38] | < 0.5 µM | < 0.05 µM | < 0.5 µM
NCC1CCN(c2cc(C(F)(F)F)cc(-c3n[nH]c4ncccc34)n2)CC1 [Compound 412] | > 1.25 µM | < 0.5 µM | > 1.25 µM
C[C@@H]1CNCCN1c1cccc(-c2n[nH]c3ncccc23)n1 [Compound 31] | > 1.25 µM | < 0.5 µM | < 2.8 µM
NCC1CN(c2ccc(F)c(-c3n[nH]c4ncccc34)n2)CCO1 (stereo not drawn) [Compound 395] | > 1.25 µM | < 0.5 µM | > 1.25 µM
CN1CCN(c2cccc(-c3n[nH]c4ncccc34)n2)CC1 [Compound 26] | > 1.25 µM | < 0.5 µM | > 2 µM
CC(C)C(C)(O)C1CN(c2nc(-c3n[nH]c4ncccc34)ccc2F)CCN1 (stereo not drawn) [Compound 375] | < 2.8 µM | < 0.001 µM | < 0.05 µM
CC(C)C[C@@]1(F)CN(c2ccc(F)c(-c3n[nH]c4ncccc34)n2)CC[C@H]1O [Compound 199] | > 1.25 µM | < 0.5 µM | > 1.25 µM
CC[C@@H]1CN(c2cccc(-c3n[nH]c4ncccc34)n2)C[C@H](CC(C)C)N1 [Compound 13] | < 2.8 µM | < 0.05 µM | < 0.5 µM
CCC[C@@H]1CN(c2cccc(-c3n[nH]c4ncccc34)n2)C[C@H](CC(C)C)N1 [Compound 15] | < 2.8 µM | < 0.05 µM | < 0.5 µM
c1ccc(-c2ccc(N3CCNCC3)nc2-c2n[nH]c3ncccc23)cc1 [Compound 50] | > 1.25 µM | > 0.7 µM | > 2 µM
NCCC1CCCN(c2ccc(F)c(-c3n[nH]c4ncccc34)n2)C1 (stereo not drawn) [Compound 304] | > 1.25 µM | > 0.7 µM | > 1.25 µM
Clc1cnc2[nH]nc(-c3cccc(N4CCNCC4)n3)c2c1 [Compound 42] | < 0.5 µM | < 0.5 µM | < 0.5 µM
CC(C)CC1(C)CN(c2cccc(-c3n[nH]c4ncccc34)n2)CCN1 (stereo not drawn) [Compound 89] | < 0.5 µM | < 0.05 µM | < 0.05 µM
O=C1CNCCN1c1cccc(-c2n[nH]c3ncccc23)n1 [Compound 166] | > 1.25 µM | > 0.7 µM | > 1.25 µM

Next, values leading:

Ki (PKC alpha kinase) | Ki (PKC theta kinase) | Ki (PKC delta kinase) | Structure (SMILES)
< 2.8 µM | < 0.05 µM | < 0.5 µM | C=C(C)CC1CN(c2ccc(C(F)(F)F)c(-c3n[nH]c4ncccc34)n2)CCN1 (stereo not drawn) [Compound 103]
> 1.25 µM | > 0.7 µM | > 1.25 µM | CC(C)CC1(CN)CN(c2ccc(C(F)(F)F)c(-c3n[nH]c4ncccc34)n2)C1 [Compound 413]
> 1.25 µM | < 0.5 µM | > 1.25 µM | Cc1ccccc1C1CN(c2ccc(C(F)(F)F)c(-c3n[nH]c4ncccc34)n2)CCN1 (stereo not drawn) [Compound 124]
> 1.25 µM | > 0.7 µM | > 1.25 µM | CCNC(=O)C1CN(c2ccc(C(F)(F)F)c(-c3n[nH]c4ncccc34)n2)CCN1 (stereo not drawn) [Compound 216]
> 1.25 µM | < 0.5 µM | > 1.25 µM | Cc1ccc(C2CN(c3ccc(C(F)(F)F)c(-c4n[nH]c5ncccc45)n3)CCN2)cc1 (stereo not drawn) [Compound 133]
> 1.25 µM | > 0.7 µM | > 1.25 µM | CC1CN(c2ccc(C(F)(F)F)c(-c3n[nH]c4ncccc34)n2)CC(C2(O)CCC2)N1 (stereo not drawn) [Compound 261]
> 1.25 µM | < 0.5 µM | > 1.25 µM | CCC(C)(O)C1CN(c2ccc(F)c(-c3n[nH]c4ncccc34)n2)CCN1 (stereo not drawn) [Compound 243]
< 0.5 µM | < 0.05 µM | < 0.5 µM | CCC1(CC(C)C)CN(c2ccc(C(F)(F)F)c(-c3n[nH]c4ncccc34)n2)CCC1N (stereo not drawn) [Compound 434]
> 1.25 µM | < 0.5 µM | > 1.25 µM | CC(C)CC1CN(c2ccc(C(F)(F)F)c(-c3n[nH]c4ncccc34)n2)CCC1CC#N (stereo not drawn) [Compound 450]
> 1.25 µM | < 0.5 µM | > 1.25 µM | CC(C)CC1(O)CNCCN(c2ccc(F)c(-c3n[nH]c4ncccc34)n2)C1 (stereo not drawn) [Compound 196]
> 1.25 µM | < 0.5 µM | > 2 µM | Fc1cnc2[nH]nc(-c3nc(N4CCNCC4)ccc3C(F)(F)F)c2c1 [Compound 45]
> 1.25 µM | < 0.5 µM | > 1.25 µM | CC(C)C(F)(F)C1CN(c2ccc(C(F)(F)F)c(-c3n[nH]c4ncccc34)n2)CCN1 (stereo not drawn) [Compound 150]
< 2.8 µM | < 0.05 µM | < 0.5 µM | CCC(N)C1CCCN(c2ccc(F)c(-c3n[nH]c4ncccc34)n2)C1 (stereo not drawn) [Compound 291]
> 1.25 µM | > 0.7 µM | > 1.25 µM | Fc1ccc(N2CCC(C(F)(F)F)CC2)nc1-c1n[nH]c2ncccc12 [Compound 268]
> 1.25 µM | < 0.5 µM | < 2.8 µM | CC(C)C(C)(N)C1CCCN(c2ccc(F)c(-c3n[nH]c4ncccc34)n2)C1 (stereo not drawn) [Compound 292]
> 1.25 µM | < 0.5 µM | > 1.25 µM | COc1ccccc1C1CN(c2ccc(C(F)(F)F)c(-c3n[nH]c4ncccc34)n2)CCN1 (stereo not drawn) [Compound 114]
< 2.8 µM | < 0.05 µM | < 0.05 µM | NC1(C2CCCN(c3ccc(F)c(-c4n[nH]c5ncccc45)n3)C2)CCC1 (stereo not drawn) [Compound 324]
< 0.5 µM | < 0.05 µM | < 0.5 µM | NC1CCN(c2ccc(C(F)(F)F)c(-c3n[nH]c4ncccc34)n2)CC12CCCC2 (stereo not drawn) [Compound 464]
> 1.25 µM | < 0.5 µM | > 1.25 µM | CC(C)C[C@H]1CN(c2ccc(C(F)(F)F)c(-c3n[nH]c4ncccc34)n2)CCCN1 [Compound 224]
> 1.25 µM | > 0.7 µM | > 1.25 µM | NC[C@@H]1CCN(c2ccc(C(F)(F)F)c(-c3n[nH]c4ncccc34)n2)C1 [Compound 353]
> 1.25 µM | < 0.5 µM | > 1.25 µM | CC(C)CC1(CN)CCN(c2ccc(C(F)(F)F)c(-c3n[nH]c4ncccc34)n2)CC1 [Compound 466]
> 1.25 µM | < 0.05 µM | < 0.5 µM | CC(C)(C)C1CN(c2ccc(F)c(-c3n[nH]c4ncccc34)n2)CCN1 (stereo not drawn) [Compound 197]
> 1.25 µM | < 2.8 µM | > 1.25 µM | N#CCCC1CN(c2ccc(C(F)(F)F)c(-c3n[nH]c4ncccc34)n2)CCC1O (stereo not drawn) [Compound 459]
> 1.25 µM | < 0.5 µM | > 1.25 µM | NC(=O)CC1CN(c2ccc(C(F)(F)F)c(-c3n[nH]c4ncccc34)n2)CCN1 (stereo not drawn) [Compound 209]
